Experimental data reported in the supplement of paper PMC6315032.

What was measured:
Experiment in all cases: apparent dissociation constant (pKDapp, Kinobeads competition, Cheng-Prusoff corrected) (-log10 M); higher = tighter binding
MET = MET (UniProt P08581); details: affinity matrix / lysate: Kinobeads, mixed HEK293/K-562/placenta lysate
AKT2 = AKT2 (UniProt P31751); details: affinity matrix / lysate: Kinobeads, mixed HEK293/K-562/placenta lysate
CDKL5 = CDKL5 (UniProt O76039); details: affinity matrix / lysate: Kinobeads, mixed HEK293/K-562/placenta lysate
Chain of CDKL5 (O76039 whole entry): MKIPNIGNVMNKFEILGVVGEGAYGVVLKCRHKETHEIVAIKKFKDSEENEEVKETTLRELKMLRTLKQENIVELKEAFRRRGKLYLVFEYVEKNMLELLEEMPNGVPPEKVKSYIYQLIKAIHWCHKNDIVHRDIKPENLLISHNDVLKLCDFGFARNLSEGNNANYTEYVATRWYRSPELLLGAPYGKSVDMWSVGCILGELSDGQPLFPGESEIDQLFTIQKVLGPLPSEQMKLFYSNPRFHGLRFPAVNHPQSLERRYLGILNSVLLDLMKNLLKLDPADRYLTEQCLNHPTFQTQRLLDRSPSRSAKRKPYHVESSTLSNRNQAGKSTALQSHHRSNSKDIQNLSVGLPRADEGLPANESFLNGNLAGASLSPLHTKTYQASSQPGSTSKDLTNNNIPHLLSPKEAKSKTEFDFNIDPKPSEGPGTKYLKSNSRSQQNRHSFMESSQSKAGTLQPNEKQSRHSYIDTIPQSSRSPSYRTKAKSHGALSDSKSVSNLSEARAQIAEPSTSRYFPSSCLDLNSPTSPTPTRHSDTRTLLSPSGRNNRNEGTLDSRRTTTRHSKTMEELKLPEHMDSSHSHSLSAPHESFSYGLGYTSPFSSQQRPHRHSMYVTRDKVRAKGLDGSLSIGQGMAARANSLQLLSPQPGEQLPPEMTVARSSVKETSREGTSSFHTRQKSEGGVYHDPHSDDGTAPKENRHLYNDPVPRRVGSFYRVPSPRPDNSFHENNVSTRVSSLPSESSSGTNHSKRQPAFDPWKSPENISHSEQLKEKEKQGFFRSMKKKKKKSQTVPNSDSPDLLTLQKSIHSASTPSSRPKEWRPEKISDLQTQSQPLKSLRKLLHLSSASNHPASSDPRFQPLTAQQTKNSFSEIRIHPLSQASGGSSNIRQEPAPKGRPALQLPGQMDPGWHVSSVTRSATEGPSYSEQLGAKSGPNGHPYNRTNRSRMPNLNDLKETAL

MAPKAPK3 = MAPKAPK3 (UniProt Q16644); details: affinity matrix / lysate: Kinobeads, mixed HEK293/K-562/placenta lysate
ICK = ICK (UniProt Q9UPZ9); details: affinity matrix / lysate: Kinobeads, mixed HEK293/K-562/placenta lysate
TESK1 = TESK1 (UniProt Q15569); details: affinity matrix / lysate: Kinobeads, mixed HEK293/K-562/placenta lysate
ADCK1 = ADCK1 (UniProt Q86TW2); details: affinity matrix / lysate: Kinobeads, mixed HEK293/K-562/placenta lysate
PCTK1 = PCTK1 (UniProt Q00536); details: affinity matrix / lysate: Kinobeads, mixed HEK293/K-562/placenta lysate
CAMK2G = CAMK2G (UniProt Q13555); details: affinity matrix / lysate: Kinobeads, mixed HEK293/K-562/placenta lysate
TP53RK = TP53RK (UniProt Q96S44); details: affinity matrix / lysate: Kinobeads, mixed HEK293/K-562/placenta lysate
PI4KA = PI4KA (UniProt P42356)
Chain of PI4KA (P42356 whole entry, looked up): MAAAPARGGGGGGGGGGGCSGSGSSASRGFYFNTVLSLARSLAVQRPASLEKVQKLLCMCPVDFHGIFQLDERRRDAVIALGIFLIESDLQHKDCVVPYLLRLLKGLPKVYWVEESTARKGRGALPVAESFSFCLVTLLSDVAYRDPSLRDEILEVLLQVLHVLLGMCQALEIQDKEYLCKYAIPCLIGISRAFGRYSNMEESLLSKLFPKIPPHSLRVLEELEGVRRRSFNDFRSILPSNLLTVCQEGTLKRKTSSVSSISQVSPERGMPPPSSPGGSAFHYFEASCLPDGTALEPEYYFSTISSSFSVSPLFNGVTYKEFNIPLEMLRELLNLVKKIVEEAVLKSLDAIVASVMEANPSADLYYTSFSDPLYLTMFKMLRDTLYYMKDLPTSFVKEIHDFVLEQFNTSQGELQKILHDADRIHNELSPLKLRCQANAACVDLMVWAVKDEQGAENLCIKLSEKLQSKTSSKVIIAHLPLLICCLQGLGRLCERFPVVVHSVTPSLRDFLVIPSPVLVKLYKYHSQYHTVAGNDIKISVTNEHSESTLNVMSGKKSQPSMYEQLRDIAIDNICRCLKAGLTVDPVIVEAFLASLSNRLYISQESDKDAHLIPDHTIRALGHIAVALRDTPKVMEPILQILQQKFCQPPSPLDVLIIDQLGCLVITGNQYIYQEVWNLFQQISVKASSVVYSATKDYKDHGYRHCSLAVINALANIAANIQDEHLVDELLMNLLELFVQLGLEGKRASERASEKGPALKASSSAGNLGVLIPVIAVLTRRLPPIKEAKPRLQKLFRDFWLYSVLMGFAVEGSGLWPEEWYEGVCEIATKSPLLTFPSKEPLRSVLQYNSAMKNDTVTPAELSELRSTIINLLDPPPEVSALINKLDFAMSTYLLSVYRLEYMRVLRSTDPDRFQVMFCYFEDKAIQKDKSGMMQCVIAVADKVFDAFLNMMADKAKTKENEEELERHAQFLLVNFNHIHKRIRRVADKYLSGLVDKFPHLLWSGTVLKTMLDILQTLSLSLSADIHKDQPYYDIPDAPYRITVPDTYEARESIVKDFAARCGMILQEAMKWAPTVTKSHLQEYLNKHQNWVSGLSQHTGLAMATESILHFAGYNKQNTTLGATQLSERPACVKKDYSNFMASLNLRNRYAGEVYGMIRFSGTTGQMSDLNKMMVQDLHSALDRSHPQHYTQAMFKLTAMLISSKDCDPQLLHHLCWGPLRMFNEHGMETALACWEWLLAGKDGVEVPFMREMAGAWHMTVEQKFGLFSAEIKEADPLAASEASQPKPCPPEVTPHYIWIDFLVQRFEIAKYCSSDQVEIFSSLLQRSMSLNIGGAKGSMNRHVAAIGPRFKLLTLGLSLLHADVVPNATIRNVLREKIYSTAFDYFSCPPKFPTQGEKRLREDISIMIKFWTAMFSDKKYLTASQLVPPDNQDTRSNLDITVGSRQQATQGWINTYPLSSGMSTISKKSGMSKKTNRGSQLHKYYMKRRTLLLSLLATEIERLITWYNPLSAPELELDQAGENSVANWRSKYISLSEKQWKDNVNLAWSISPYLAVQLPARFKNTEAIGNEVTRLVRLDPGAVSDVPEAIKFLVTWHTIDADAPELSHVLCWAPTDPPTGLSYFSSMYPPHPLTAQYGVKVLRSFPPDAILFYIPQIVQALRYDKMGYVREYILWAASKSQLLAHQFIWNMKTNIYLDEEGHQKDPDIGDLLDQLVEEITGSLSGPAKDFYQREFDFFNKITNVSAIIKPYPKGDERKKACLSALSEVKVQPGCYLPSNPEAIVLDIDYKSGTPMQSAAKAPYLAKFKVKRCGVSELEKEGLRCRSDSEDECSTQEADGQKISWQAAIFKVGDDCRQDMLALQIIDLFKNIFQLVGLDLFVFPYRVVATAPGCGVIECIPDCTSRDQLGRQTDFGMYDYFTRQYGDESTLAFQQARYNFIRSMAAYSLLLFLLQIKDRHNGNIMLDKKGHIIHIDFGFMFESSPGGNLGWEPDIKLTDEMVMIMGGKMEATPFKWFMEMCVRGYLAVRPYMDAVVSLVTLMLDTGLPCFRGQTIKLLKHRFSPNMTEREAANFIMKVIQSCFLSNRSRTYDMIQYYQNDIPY

JAK2 = JAK2 (UniProt O60674); details: affinity matrix / lysate: Kinobeads, mixed HEK293/K-562/placenta lysate
STK38L = STK38L (UniProt Q9Y2H1); details: affinity matrix / lysate: Kinobeads, mixed HEK293/K-562/placenta lysate
AKT1 = AKT1 (UniProt P31749); details: affinity matrix / lysate: Kinobeads, mixed HEK293/K-562/placenta lysate
CSNK2A1 = CSNK2A1 (UniProt P68400)
Chain of CSNK2A1 (P68400 whole entry, looked up): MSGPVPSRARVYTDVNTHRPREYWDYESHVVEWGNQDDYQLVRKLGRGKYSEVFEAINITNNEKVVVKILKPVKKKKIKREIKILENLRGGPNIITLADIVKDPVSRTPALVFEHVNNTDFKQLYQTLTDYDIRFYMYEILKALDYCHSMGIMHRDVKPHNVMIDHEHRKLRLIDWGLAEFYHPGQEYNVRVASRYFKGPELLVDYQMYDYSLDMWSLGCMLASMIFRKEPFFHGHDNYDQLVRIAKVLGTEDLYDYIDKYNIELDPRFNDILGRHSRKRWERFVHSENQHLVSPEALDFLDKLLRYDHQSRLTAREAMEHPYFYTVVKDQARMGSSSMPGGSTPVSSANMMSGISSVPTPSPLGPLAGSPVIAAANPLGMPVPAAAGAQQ

CSNK1A1 = CSNK1A1 (UniProt P48729); details: affinity matrix / lysate: Kinobeads, mixed HEK293/K-562/placenta lysate
CABC1 = CABC1 (UniProt Q8NI60); details: affinity matrix / lysate: Kinobeads, mixed HEK293/K-562/placenta lysate
ITK = ITK (UniProt Q08881); details: affinity matrix / lysate: Kinobeads, mixed HEK293/K-562/placenta lysate
Chain of ITK (Q08881 whole entry): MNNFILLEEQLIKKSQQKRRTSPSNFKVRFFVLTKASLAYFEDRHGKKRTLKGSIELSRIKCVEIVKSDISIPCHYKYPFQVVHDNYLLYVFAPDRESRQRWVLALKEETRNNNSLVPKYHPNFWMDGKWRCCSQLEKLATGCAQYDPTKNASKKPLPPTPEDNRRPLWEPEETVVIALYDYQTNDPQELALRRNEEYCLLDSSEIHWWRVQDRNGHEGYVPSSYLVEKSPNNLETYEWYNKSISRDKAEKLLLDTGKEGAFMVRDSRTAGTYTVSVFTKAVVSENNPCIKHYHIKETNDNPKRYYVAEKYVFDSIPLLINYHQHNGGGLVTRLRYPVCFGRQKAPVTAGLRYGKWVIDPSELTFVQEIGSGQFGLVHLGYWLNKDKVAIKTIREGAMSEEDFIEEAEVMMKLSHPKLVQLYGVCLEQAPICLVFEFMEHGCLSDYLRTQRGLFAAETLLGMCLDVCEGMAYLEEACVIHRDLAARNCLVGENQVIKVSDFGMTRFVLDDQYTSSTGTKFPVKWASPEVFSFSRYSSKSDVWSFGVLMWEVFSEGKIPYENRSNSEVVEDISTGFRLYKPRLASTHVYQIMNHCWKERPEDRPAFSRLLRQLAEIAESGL

AURKB = AURKB (UniProt Q96GD4); details: affinity matrix / lysate: Kinobeads, mixed HEK293/K-562/placenta lysate
PDPK1 = PDPK1 (UniProt O15530); details: affinity matrix / lysate: Kinobeads, mixed HEK293/K-562/placenta lysate
LATS2 = LATS2 (UniProt Q9NRM7); details: affinity matrix / lysate: Kinobeads, mixed HEK293/K-562/placenta lysate
CDK7 = CDK7 (UniProt P50613); details: affinity matrix / lysate: Kinobeads, mixed HEK293/K-562/placenta lysate
MASTL = MASTL (UniProt Q96GX5); details: affinity matrix / lysate: Kinobeads, mixed HEK293/K-562/placenta lysate
PRKX = PRKX (UniProt P51817); details: affinity matrix / lysate: Kinobeads, mixed HEK293/K-562/placenta lysate
PCTK2 = PCTK2 (UniProt Q00537); details: affinity matrix / lysate: Kinobeads, mixed HEK293/K-562/placenta lysate
AURKA = AURKA (UniProt O14965); details: affinity matrix / lysate: Kinobeads, mixed HEK293/K-562/placenta lysate
LATS1 = LATS1 (UniProt O95835); details: affinity matrix / lysate: Kinobeads, mixed HEK293/K-562/placenta lysate
CAMKK1 = CAMKK1 (UniProt Q8N5S9); details: affinity matrix / lysate: Kinobeads, mixed HEK293/K-562/placenta lysate
CDC42BPA = CDC42BPA (UniProt Q5VT25); details: affinity matrix / lysate: Kinobeads, mixed HEK293/K-562/placenta lysate
EPHA3 = EPHA3 (UniProt P29320); details: affinity matrix / lysate: Kinobeads, mixed HEK293/K-562/placenta lysate
Chain of EPHA3 (P29320 whole entry): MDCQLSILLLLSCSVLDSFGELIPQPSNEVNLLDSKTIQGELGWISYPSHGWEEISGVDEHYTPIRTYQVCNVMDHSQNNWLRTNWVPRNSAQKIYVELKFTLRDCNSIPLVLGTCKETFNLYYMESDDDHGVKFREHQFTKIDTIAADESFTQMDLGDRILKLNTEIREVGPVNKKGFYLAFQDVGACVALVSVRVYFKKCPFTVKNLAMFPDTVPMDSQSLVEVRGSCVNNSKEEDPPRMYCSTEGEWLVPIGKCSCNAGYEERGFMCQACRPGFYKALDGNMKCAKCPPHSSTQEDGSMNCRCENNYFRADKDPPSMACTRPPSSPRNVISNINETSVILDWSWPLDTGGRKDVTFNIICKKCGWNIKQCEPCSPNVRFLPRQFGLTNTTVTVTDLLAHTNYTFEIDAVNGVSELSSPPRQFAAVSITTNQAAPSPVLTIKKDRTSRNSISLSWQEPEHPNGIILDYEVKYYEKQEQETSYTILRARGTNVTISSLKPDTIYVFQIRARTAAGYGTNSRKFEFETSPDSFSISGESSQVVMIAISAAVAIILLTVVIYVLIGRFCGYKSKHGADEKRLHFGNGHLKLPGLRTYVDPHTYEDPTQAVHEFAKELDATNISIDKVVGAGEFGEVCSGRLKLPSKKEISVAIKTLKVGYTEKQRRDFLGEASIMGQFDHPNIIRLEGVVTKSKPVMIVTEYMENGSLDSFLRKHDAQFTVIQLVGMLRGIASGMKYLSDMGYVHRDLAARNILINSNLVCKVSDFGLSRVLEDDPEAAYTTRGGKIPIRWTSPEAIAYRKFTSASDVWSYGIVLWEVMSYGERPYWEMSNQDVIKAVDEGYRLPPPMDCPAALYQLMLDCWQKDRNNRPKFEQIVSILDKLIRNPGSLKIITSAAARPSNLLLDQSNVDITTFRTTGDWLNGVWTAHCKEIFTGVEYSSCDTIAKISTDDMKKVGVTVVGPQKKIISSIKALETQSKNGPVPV

OXSR1 = OXSR1 (UniProt O95747); details: affinity matrix / lysate: Kinobeads, mixed HEK293/K-562/placenta lysate
STK10 = STK10 (UniProt O94804); details: affinity matrix / lysate: Kinobeads, mixed HEK293/K-562/placenta lysate
PRKD2 = PRKD2 (UniProt Q9BZL6); details: affinity matrix / lysate: Kinobeads, mixed HEK293/K-562/placenta lysate
[1] = affinity matrix / lysate: Kinobeads, mixed HEK293/K-562/placenta lysate
[2] = affinity matrix / lysate: Lipid Kinobeads, mixed HeLa/Jurkat/K-562 lysate

apparent dissociation constant (-log10 M) (MET)	apparent dissociation constant (-log10 M) (AKT2)	apparent dissociation constant (-log10 M) (CDKL5)	apparent dissociation constant (-log10 M) (MAPKAPK3)	apparent dissociation constant (-log10 M) (ICK)	apparent dissociation constant (-log10 M) (TESK1)	apparent dissociation constant (-log10 M) (ADCK1)	apparent dissociation constant (-log10 M) (PCTK1)	apparent dissociation constant (-log10 M) (CAMK2G)	apparent dissociation constant (-log10 M) (TP53RK)	apparent dissociation constant (-log10 M) (PI4KA; [1])	apparent dissociation constant (-log10 M) (PI4KA; [2])	apparent dissociation constant (-log10 M) (JAK2)	apparent dissociation constant (-log10 M) (STK38L)	apparent dissociation constant (-log10 M) (AKT1)	apparent dissociation constant (-log10 M) (CSNK2A1; [1])	apparent dissociation constant (-log10 M) (CSNK2A1; [2])	apparent dissociation constant (-log10 M) (CSNK1A1)	apparent dissociation constant (-log10 M) (CABC1)	apparent dissociation constant (-log10 M) (ITK)	apparent dissociation constant (-log10 M) (AURKB)	apparent dissociation constant (-log10 M) (PDPK1)	apparent dissociation constant (-log10 M) (LATS2)	apparent dissociation constant (-log10 M) (CDK7)	apparent dissociation constant (-log10 M) (MASTL)	apparent dissociation constant (-log10 M) (PRKX)	apparent dissociation constant (-log10 M) (PCTK2)	apparent dissociation constant (-log10 M) (AURKA)	apparent dissociation constant (-log10 M) (LATS1)	apparent dissociation constant (-log10 M) (CAMKK1)	apparent dissociation constant (-log10 M) (CDC42BPA)	apparent dissociation constant (-log10 M) (EPHA3)	apparent dissociation constant (-log10 M) (OXSR1)	apparent dissociation constant (-log10 M) (STK10)	apparent dissociation constant (-log10 M) (PRKD2)	Structure (SMILES)
< 6	< 6	< 6	< 6	< 6	< 6	< 6	< 6	< 6	< 6	< 6	< 6	< 6	< 6	< 6	< 6	< 6	< 6	< 6	< 6	< 6	< 6	< 6	< 6	< 6	< 6	< 6	< 6	< 6	< 6	< 6	< 6	< 6	< 6	< 6	COc1ccc(-c2ccc3c(N4CCOC[C@@H]4C)nc(N4CCOC[C@@H]4C)nc3n2)cc1CO [AZD8055]
< 6	< 6	< 6	< 6	< 6	< 6	< 6	< 6	< 6	< 6		< 6	< 6	< 6	< 6	< 6	< 6	< 6	< 6	< 6	< 6	< 6	< 6	< 6	< 6	< 6	< 6	< 6	< 6	< 6	< 6	< 6	< 6	< 6	< 6	CCNC(=O)Nc1ccc(-c2nc(N3CCOC[C@@H]3C)c3c(n2)C(C)(C)S(=O)(=O)C3)cc1 [CZ415]
